Experimental data from publication PMC5344956 (Cancer Chemotherapy and Pharmacology, 2017).

Key:
[1] = Metabolite characterization by LC/MS/MS in human plasma, urine, and feces; conditions: for Matrix (in which the metabolite was found): human plasma, urine, feces, LC/MS/MS
Description: The remaining eluate stream of 0.16 mL/min from the HPLC runs was diverted to the inlet of the mass spectrometer. The samples were analyzed using a heated electrospray ionization probe. Full-scan positive ion MS data were collected using Finnigan Exactive (MS^1) or Q-Exactive (MS^1 and MS^2) mass spectrometers (Thermo Fisher Scientific Inc.) Exact conditions are described in the Online Resource 3.
Finnigan Exactive or Q-Exactive mass spectrometers (Thermo Fisher Scientific Inc., San Jose, CA) were used to collect full scan MS^1 and MS^2 data.

[2] = Metabolite profiling of plasma (HPLC-radiochromatography); type: in vivo, human; conditions: % of TRA
Description: For each subject, a 0–24 h pooled plasma sample was prepared according to the scheme outlined in the literature. In addition, several pooled plasma samples across all subjects were prepared at these time points: 5, 10, 12, […], and 48 h, and every 24 h thereafter until 240 h.
All pooled 0–24, 5, 10, 12, and 24 h plasma samples were processed as follows. […] The samples were vortexed for 30 min and centrifuged at 4500g at 4 °C for 6 min. The supernatants were transferred into new polypropylene tubes and kept on ice. The resulting plasma protein pellets were extracted twice to ensure good recovery and the extracts were combined. The combined extracts were loaded onto Ostro sample preparation plates (Waters Corporation, Milford, MA, USA), dried, eluted with 0.2 mL of cold acetonitrile, and all eluates were collected and evaporated under nitrogen (TurboVap LV; Caliper Life Sciences, Hopkinton, MA, USA). The dry residues were reconstituted in 0.1 mL of methanol, and a 0.005-mL aliquot was removed for determination of radioactivity. The remainder of the supernatants were transferred to high-performance liquid chromatography (HPLC) vials and stored at −80 °C until analysis.
Pooled post-24-h plasma samples were extracted using a slightly modified procedure. […] Appropriate volumes of formic acid were added to achieve a final concentration of 1%. Then, the samples were warmed to 37 °C and loaded to preconditioned Oasis HLB cartridges (Waters Corporation, Milford, MA, USA). These columns were then washed with water, dried under vacuum, and eluted with methanol. The eluates were collected and evaporated under nitrogen. The dry residues were reconstituted in 0.1 mL of methanol, and a 0.005-mL aliquot was removed for determination of radioactivity. The remainder of the supernatants were transferred to HPLC vials and stored at −80 °C until analysis.
(§1) A Finnigan Surveyor HPLC system (Thermo Fisher Scientific Inc., San Jose, CA, USA), consisting of an LC pump plus an autosampler and a UV–Vis plus detector, was used mostly for profiling (except the post-24-h plasma samples, which were analyzed using a Dionex HPLC system). A Phenomenex® Gemini® C18, 5-μm, 3.0 × 100-mm column (Phenomenex Inc., Torrance, CA, USA) was used along with a C-12 guard column (4 × 2 mm). LC conditions were as follows: solvent A was 10 mM ammonium bicarbonate in water (pH 10.0) and solvent B was 100% methanol and the flow rate was 0.8 mL/min. The following gradient was employed (B%): 0–5 min (20%), 32 min (42%), 33 min (60%), 55 min (70%), 56–60 min (95%), and 62–70 min (20%).
(§2) Reconstituted solvent extracts (0.050–0.10 mL) of plasma, urine, or feces were injected onto the HPLC column. The post-column eluate was split after UV detection into two streams (0.64 and 0.16 mL/min). The 0.64-mL stream was diverted to a fraction collector (Gilson FX 204; Gilson Medical Electronics, Middleton, WI, USA) to be collected in 96-well plates at 0.16 min/well (ScintiPlates; PerkinElmer Life Sciences, Shelton, CT, USA), and the 0.16-mL stream was directed to the mass spectrometer. The solvent in the 96-well plates was removed at 40 °C using a Genevac evaporator (Genevac, Inc., Stone Ridge, NY, USA).
(§3) The radioactivity counts per minute (CPM) in each well was determined using a MicroBeta scintillation counter (PerkinElmer Life and Analytical Sciences). The resulting CPM vs. time data were processed using Excel (Microsoft Corporation, Seattle, WA, USA). The CPM in each well was background-subtracted (using the average CPM values of the blank region of the HPLC run). Radiochromatographic profiles were obtained by plotting the resulting net CPM values against time after injection. Radioactive peaks in the chromatographic profiles were identified, and the radioactivity in each peak was summed and reported as a percentage of TRA in the HPLC run.

[3] = Plasma pharmacokinetics of TRA, ponatinib and metabolites after a single oral 45-mg [14C]ponatinib dose
Description: The subject release criterion was defined as follows: the combined urine and fecal radioactivity excretion for two consecutive days should fall below 1% of the dose administered.
Detailed procedures on sample collection, storage, and shipment are described in Online Resource 1. […] Fecal homogenates were prepared by adding water (four times the feces weight) and homogenizing.
(§4) TRA analysis was carried out at ABC Laboratories. The radioactivity in plasma (duplicate per time point) and urine samples (triplicate per time point) was quantitated by direct counting in a Beckman LS6000SC or LS6500 liquid scintillation counter (PerkinElmer Life and Analytical Sciences, Boston, MA, USA). Whole blood (duplicate per time point) and fecal homogenate (triplicate per time point) samples were oxidized, and the resultant ^14CO2 was trapped in Carbosorb (Calgon Carbon Corporation, Pittsburgh, PA, USA) in combination with Permafluor, followed by liquid scintillation counting to determine the radioactivity. Individual samples were counted for 5 min for whole blood and fecal matrices, and 10 min for plasma and urine matrices. Predose blood, plasma, urine, and feces samples served as respective control samples to determine and subtract the background radioactivity in the analysis.
M14 was quantitated using a different LC/MS/MS method (Online Resource 2). The pharmacokinetic analysis was carried out using WinNonlin® v6.4 (Pharsight Corp., Mountain View, CA, USA).
Aliquots of 30 µl of calibration standards, quality controls, and incurred plasma samples were transferred into a 96-well plate. Then 150 µl of ice-cold acetonitrile containing 50 ng/ml of AP30376 (d6-AP24600, internal standard) were added. The 96-well plate was vortexed for 10 min and then centrifuged at 4750 rpm for 20 min at 4°C. 100 µl aliquots of the supernatants were transferred into another 96-well plate and the samples were analyzed by liquid chromatography tandem mass spectrometry.

[4] = Metabolite profiling of feces (HPLC-radiochromatography); type: in vivo, human; conditions: 0–144 h pool
Description: One-gram samples of the fecal homogenates were transferred to 50-mL polypropylene tubes, extracted with 4 mL of methanol, and centrifuged (4500g). The resulting residues were extracted three more times (once with 2 mL of methanol and twice with 1 mL of methanol containing 1% formic acid) and centrifuged. All supernatants were combined and evaporated under nitrogen, and the residue was reconstituted with 0.5 mL of methanol, vortexed, sonicated, and centrifuged. A 0.010-mL aliquot of the supernatant was removed for determination of radioactivity, and the remainder of the supernatant was transferred to an HPLC vial and stored at −80 °C.
as §1, §2, §3

[5] = Excretion and mass balance in urine and feces; type: in vivo, human
Description: Six healthy male volunteers, 25–45 years of age, with a mean body weight of 83.3 kg (range 64.5–94.4) and a mean body mass index of 26.9 kg/m^2 (range 20.2–29.9) participated in the study. […] The subject release criterion was defined as follows: the combined urine and fecal radioactivity excretion for two consecutive days should fall below 1% of the dose administered.
Detailed procedures on sample collection, storage, and shipment are described in Online Resource 1. […] Urine and feces collected from each subject were pooled at predose and every 24 h thereafter. Fecal homogenates were prepared by adding water (four times the feces weight) and homogenizing.
as §4
All urine voided was collected and stored in containers at 5±3 °C until the collection interval was completed. Subjects voided in the morning prior to study drug administration.
Multiple collections of urine during each collection interval from each individual subject were pooled. The urine samples from each collection interval were well mixed, accurately weighed, and assessed for its pH. A 100 ml sample from each collection interval from each subject was aliquoted into a separately labeled container to be sent to ABC Laboratories for radioactivity analysis. An approximately 10 ml sample from each collection interval from each subject on day 8 and each day thereafter was used for TRA analysis at Celerion (Lincoln, NE). All urine samples were kept frozen at −80 ± 15 °C.
Stool collections began approximately 24 h prior to drug administration until the end of the postdose sampling period. The 24 h predose samples were used as control samples for the radioactivity analysis and metabolite profiling. Feces were collected daily (24 h collection periods) until subjects were discharged from the clinical research unit.
All fecal samples were collected in polypropylene containers; toilet paper was collected separately. The weight of each sample was recorded. Multiple collections of feces during each collection interval from each individual subject were pooled. The feces samples were thoroughly homogenized with water (4X the weight of the feces). A 100 g sample was aliquoted into a separately labeled container to be sent to ABC Laboratories for radioactivity analysis. An approximately 10 g sample from each collection interval from each subject on day 8 and each day thereafter was used for TRA analysis at Celerion. All fecal homogenate samples were kept frozen at −80 ± 15 °C.

| Matrix (in which the metabolite was found) [1] | % Distribution in plasma ([2]; 0–24 h pooled plasma) | % Distribution in plasma ([2]; 5 h pooled plasma) | % Distribution in plasma ([2]; 10 h pooled plasma) | % Distribution in plasma ([2]; 12 h pooled plasma) | Compound | % Distribution in plasma ([2]; 36 h pooled plasma) | % Distribution in plasma ([2]; 48 h pooled plasma) | % Distribution in plasma ([2]; 72 h pooled plasma) | % Distribution in plasma ([2]; 96 h pooled plasma) | also measured |
| --- | --- | --- | --- | --- | --- | --- | --- | --- | --- | --- |
| – | – | – | – | – | CN1CCN(Cc2ccc(N)cc2C(F)(F)F)CC1 [M19, 4-((4-methylpiperazin-1-yl)methyl)-3-(trifluoromethyl)aniline] | – | – | – | – | detection in human samples (plasma, urine, feces) ([1]; in vivo): not observed in any human samples; detection in human samples (plasma, urine, feces) ([1]; male, human, in vivo): The amide hydrolysis also would result in an aniline metabolite M19 (AP24592). However, this metabolite was not detected in any matrices. |
| Trace: P, U, F | – | – | – | – | CC(=O)Nc1ccc(CN2CCN(C)CC2)c(C(F)(F)F)c1 [M22] | – | – | – | – | detection in human samples (plasma, urine, feces) ([1]; MS traces): trace levels |
| P, U, F | ~0.5–1.0% | ~0.5% | ~0.5–1.0% | ~0.5–1.0% | Cc1ccc(C(=O)Nc2ccc(CN3CC[N+](C)([O-])CC3)c(C(F)(F)F)c2)cc1C#Cc1cnc2cccnn12 [M36, 4-(4-(3-(imidazo[1,2-b]pyridazin-3-ylethynyl)-4-methylbenzamido)-2-(trifluoromethyl)benzyl)-1-methylpiperazine 1-oxide] | – (“–” values less than 0.5% are not reported) | – (“–” values less than 0.5% are not reported) | – (“–” values less than 0.5% are not reported) | – (“–” values less than 0.5% are not reported) | – |
| P, U, F | ~0.5–1.0% | ~0.5–1.0% | ~0.5–1.0% | ~0.5–1.0% | Cc1ccc(C(=O)Nc2ccc(CN3CCNCC3)c(C(F)(F)F)c2)cc1C#Cc1cnc2cccnn12 [M42, 3-(imidazo[1,2-b]pyridazin-3-ylethynyl)-4-methyl-N-(4-(piperazin-1-ylmethyl)-3-(trifluoromethyl)phenyl)benzamide] | – (“–” values less than 0.5% are not reported) | – (“–” values less than 0.5% are not reported) | – (“–” values less than 0.5% are not reported) | – (“–” values less than 0.5% are not reported) | plasma level at 144 h postdose ([3]; human plasma, 144 h postdose): at or below detectable limits; time postdose at which C max / maximal levels in plasma were observed ([3]; human plasma, single oral 45-mg dose, M23 by radiochromatography): 2 to 12 h; concentration at 144 h ([3]; male, human, plasma, oral, 45 mg): < 0.0002 µM; AUC(0-inf) ([3]; male, human, plasma, po, 45 mg): 1800 nM·h; AUC(0-t) ([3]; male, human, plasma, po, 45 mg): 1610 nM·h; Cmax ([3]; male, human, plasma, po, 45 mg): 0.107 µM; Tmax ([3]; male, human, plasma, po, 45 mg): 2 h; half-life ([3]; male, human, plasma, po, 45 mg): 56 h; % of total radioactive dose [4]: 8.3%; % Distribution in matrix ([4]; % of fecal TRA): 9.6% |
| – | – | – | – | – | Cc1ccc([14C](=O)Nc2ccc(CN3CCN(C)CC3)c(C(F)(F)F)c2)cc1C#Cc1cnc2cccnn12 [[^14C]ponatinib] | – | – | – | – | share of total urinary TRA contained in the 0–72-h pool ([5]; 0–72 h): 84%; cumulative recovery in feces during 0–144 h, share of the TRA in feces ([5]; 0–144 h): 91%; dose recovered in feces ([5]; 0–336 h (days 0–14) postdose): 86.6%; dose recovered in urine ([5]; 0–336 h (days 0–14) postdose): 5.4%; total radioactive dose recovered (urine and feces) ([5]; 0–336 h postdose): 92% |
